Data from paper PMC4950319, “Kinetic and structural characterization of amyloid‐β peptide hydrolysis by human angiotensin‐1‐converting enzyme” (The Febs Journal, 2016).
Blank lines part the entries; values can stand above or below the molecule they belong to. Where no end group is shown, it is not given here. [ ]: non-standard residue; d: D form. The star is where a group is joined. Tyr(3-NO2) = N[C@@H](Cc1ccc(O)c([N+](=O)[O-])c1)C(=O)O; EDDnp = O=[N+]([O-])c1ccc(NCCN*)c([N+](=O)[O-])c1; 2Abz = Nc1ccccc1C(=O)O

Columns and labels:
sACE (human ACE) = details: cited from earlier work; for interdomain cooperativity: human ACE enzymes
Excerpt: Due to the C‐domain's poorer hydrolysis of Aβ we can infer that the C‐domain appears ...

ACE = details: recombinant truncated domains only; cited from earlier work
Excerpt: Based on our results and the synergistic effect that the C‐domain exerts on the N‐domain, the C‐domain activity is likely to be important in vivo. […] This observation is supported by the architecture of the central cavity found in tACE (human testis ACE, C‐domain equivalent) crystal structure and the chloride‐dependent substrate interactions 54, 57. The latter study, ...

[1] = target: full-length domain knockout variant of human sACE with only the C-domain active (C-sACE) (human) (UniProt P12821)
Sequence of full-length domain knockout variant of human sACE with only the C-domain active (C-sACE) (human) (P12821 other isoform, or with tags, fused parts or gaps, change not shown): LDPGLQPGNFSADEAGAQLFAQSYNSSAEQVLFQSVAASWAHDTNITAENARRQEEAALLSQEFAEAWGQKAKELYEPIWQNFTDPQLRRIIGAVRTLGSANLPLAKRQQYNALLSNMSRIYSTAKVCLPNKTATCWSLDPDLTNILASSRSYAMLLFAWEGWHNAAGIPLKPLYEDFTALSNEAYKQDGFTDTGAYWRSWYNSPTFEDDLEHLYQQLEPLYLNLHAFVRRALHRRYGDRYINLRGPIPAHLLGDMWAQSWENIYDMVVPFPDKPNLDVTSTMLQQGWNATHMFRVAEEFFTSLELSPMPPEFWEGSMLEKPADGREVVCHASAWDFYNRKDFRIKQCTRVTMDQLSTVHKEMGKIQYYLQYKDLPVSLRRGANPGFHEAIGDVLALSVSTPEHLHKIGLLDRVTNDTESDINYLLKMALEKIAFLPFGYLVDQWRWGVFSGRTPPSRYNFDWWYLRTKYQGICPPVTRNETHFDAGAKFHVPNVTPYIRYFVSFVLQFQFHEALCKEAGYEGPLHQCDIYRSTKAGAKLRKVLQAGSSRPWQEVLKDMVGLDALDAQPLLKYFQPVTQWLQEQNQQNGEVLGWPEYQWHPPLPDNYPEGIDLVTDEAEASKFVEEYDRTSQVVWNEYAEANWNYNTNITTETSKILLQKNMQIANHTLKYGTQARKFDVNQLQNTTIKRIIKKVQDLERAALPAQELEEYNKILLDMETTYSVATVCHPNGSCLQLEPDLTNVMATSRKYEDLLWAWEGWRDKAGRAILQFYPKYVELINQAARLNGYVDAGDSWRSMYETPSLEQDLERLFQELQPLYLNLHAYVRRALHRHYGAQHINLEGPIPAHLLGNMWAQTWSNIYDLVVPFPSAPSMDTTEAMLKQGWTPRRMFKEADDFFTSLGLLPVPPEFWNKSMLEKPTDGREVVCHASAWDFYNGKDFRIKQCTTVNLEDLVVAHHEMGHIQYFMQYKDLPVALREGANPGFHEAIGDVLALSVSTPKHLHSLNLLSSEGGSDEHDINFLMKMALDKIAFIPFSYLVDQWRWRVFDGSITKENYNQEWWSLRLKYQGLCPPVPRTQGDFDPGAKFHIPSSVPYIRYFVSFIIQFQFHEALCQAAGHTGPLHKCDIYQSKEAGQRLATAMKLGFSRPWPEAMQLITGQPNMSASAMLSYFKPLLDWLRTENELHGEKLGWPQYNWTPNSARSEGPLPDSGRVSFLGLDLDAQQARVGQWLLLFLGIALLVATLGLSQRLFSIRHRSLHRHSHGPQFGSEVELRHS

[2] = target: full-length domain knockout variant of human sACE with only the N-domain active (N-sACE) (human) (UniProt P12821)
Sequence of full-length domain knockout variant of human sACE with only the N-domain active (N-sACE) (human) (P12821 other isoform, or with tags, fused parts or gaps, change not shown): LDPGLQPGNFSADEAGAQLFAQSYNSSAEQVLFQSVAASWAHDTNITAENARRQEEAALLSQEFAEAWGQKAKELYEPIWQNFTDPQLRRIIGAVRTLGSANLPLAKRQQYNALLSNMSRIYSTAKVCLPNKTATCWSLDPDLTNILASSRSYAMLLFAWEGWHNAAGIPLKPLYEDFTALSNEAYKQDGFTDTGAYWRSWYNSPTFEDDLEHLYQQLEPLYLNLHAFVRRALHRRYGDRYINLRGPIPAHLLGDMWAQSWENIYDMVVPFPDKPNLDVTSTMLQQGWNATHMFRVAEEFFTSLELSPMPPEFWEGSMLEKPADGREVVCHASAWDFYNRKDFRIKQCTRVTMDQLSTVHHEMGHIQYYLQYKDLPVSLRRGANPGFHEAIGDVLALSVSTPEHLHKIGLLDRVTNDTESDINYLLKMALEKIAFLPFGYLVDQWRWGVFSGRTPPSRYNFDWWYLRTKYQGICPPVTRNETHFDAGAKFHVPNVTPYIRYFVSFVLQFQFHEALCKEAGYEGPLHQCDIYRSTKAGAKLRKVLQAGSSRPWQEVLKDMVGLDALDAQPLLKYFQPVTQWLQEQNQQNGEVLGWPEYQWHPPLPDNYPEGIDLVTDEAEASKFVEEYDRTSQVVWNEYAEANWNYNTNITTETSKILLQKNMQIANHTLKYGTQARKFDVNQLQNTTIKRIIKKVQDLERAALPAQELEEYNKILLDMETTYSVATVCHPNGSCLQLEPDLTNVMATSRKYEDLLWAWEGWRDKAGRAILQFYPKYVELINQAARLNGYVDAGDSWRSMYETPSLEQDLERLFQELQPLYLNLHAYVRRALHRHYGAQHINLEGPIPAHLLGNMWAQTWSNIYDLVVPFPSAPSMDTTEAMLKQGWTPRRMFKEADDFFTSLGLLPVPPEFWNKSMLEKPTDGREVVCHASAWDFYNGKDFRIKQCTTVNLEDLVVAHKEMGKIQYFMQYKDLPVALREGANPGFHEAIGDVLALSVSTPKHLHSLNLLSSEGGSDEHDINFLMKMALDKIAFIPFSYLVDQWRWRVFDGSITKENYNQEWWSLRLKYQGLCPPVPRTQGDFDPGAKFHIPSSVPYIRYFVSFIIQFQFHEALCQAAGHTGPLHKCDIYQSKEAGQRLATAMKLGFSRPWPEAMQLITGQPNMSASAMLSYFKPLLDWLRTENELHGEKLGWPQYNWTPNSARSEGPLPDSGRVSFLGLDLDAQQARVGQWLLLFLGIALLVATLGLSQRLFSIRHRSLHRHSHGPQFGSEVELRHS

[3] = target: full-length domain knockout variant of human sACE with only the C-domain active (C-sACE) (human) (UniProt P12821); remark: listed apart in the source
[4] = target: full-length domain knockout variant of human sACE with only the N-domain active (N-sACE) (human) (UniProt P12821); remark: listed apart in the source

Molecule: (Abz)‐LFK(Dnp)‐OH
effect of the presence of the N‐domain on hydrolysis (sACE (human ACE)): regulatory effects

Molecule: angiotensin‐(1‐7) (DRVYIHP; Angiotensin 1-7; UniProt P01019 25-31, looked up, fragment) [physiological substrate]
interdomain cooperativity (sACE (human ACE)): showed a similar result for angiotensin I and angiotensin‐(1‐7) but not angiotensin‐(1‐9)

Molecule: Aβ(1–40): larger Aβ(1–40) substrate
competition with hippuryl‐L‐histidyl‐ L‐leucine (ACE): did not out‐compete

Molecule: angiotensin‐(1‐9) (DRVYIHPFH; Angiotensin 1-9; UniProt P01019 25-33, looked up, fragment) [physiological substrate]
degree of cooperativity between domains (sACE (human ACE); compared with many synthetic peptides): considerably less than many synthetic peptides
interdomain cooperativity (sACE (human ACE)): showed a similar result for angiotensin I and angiotensin‐(1‐7) but not angiotensin‐(1‐9)

Km of hydrolysis of Aβ(4–10)Y (fluorescence assay, read at 5 min) [1]: 38.1 µM
Km of hydrolysis of Aβ(4–10)Y (fluorescence assay, read at 5 min) [2]: 8.56 µM
B1: Aβ(4–10)Y (Abz-FRHDSG-(NT)) (peptide)
peptide: [2Abz]FRHDSG[Tyr(3-NO2)]

Km of hydrolysis of Aβ(4–10)Q (fluorescence assay, 45 min, 37 °C, 50 mM Hepes pH 7.5, 100 mM NaCl, 10 μM ZnSO4) [3]: 11.5 μM
Km of hydrolysis of Aβ(4–10)Q (fluorescence assay, 45 min, 37 °C, 50 mM Hepes pH 7.5, 100 mM NaCl, 10 μM ZnSO4) [4]: 42.4 μM
B2: Aβ(4–10)Q (Abz-FRHDSG(Q)-EDDnp) (peptide)
peptide: [2Abz]FRHDSGQ-EDDnp
